Test results as given in patent US5340829A, “Immunoregulatory agents” (priority 1992, dated 1994).
“Also recorded” adds a separate entry of the source. Read-outs that look alike come from different tables or passages of the source.

How the values were obtained:
[1] = system: swelling of popliteal lymph nodes; assay: Popliteal lymph node assay (Experiment 20); format: in vivo; conditions: Balb C mice injected in the foot pad with cells from C57BL6 mice
Procedure: In vivo, popliteal lymph node assays were conducted on normal Balb C mice.

[2] = system: ear swelling in response to PMA; assay: Ear swelling in response to PMA (Experiment 21); conditions: in vivo
[3] = system: primary response to sheep red blood cells (SRBC); assay: Direct plaque forming cell (PFC) assay, primary response to sheep red blood cells (Experiment 6); format: in vivo, C57BL/6J mice
Procedure: A control group received only the buffer vehicle (carbonate buffer, 0.01M, pH 9.5). Six hours after the first dose, the mice received 0.1 ml of a 20% SRBC solution intraperitoneally. The mice were sacrificed four days later. The spleens were harvested, and the spleen cells were tested in a modified Cunningham plaque assay. Cunningham, A. V., Nature (London) 207:1106 1965.

[4] = system: Mouse P338D cells; assay: Release of 3H-arachidonic acid metabolites, A23187-stimulated cells (Experiment 9); format: cell-based; conditions: 10^-6 M/L sorbinil; stimulated by A23187
From the text: The assay protocol was as described generally in Henderson, W. R., and S. J. Klebanoff, J. Biol. Chem. 258: 13522-13527, 1983, which is hereby incorporated by reference.

[5] = system: Human mononuclear cells; assay: PMA-stimulated superoxide production (Experiment 11); format: cell-based; conditions: concentrations as high as 10^-5 M/L; PMA stimulated normal cells
From the text: Human mononuclear cells were studied for superoxide production in culture in the presence and absence of sorbinil. Superoxide production was stimulated in normal cells using the mitogen phorbol myristate acetate (PMA).

[6] = system: spleen cells stimulated with Concanavalin A (Con A); assay: Spleen cell proliferative response to Con A after oral sorbinil (Experiment 8); format: in vivo, mice; conditions: for activation at 11 mg/kg/day: Mus musculus, read-out: Enhancement of proliferative response
Procedure: The proliferative response of T lymphocytes to the Con A mitogen requires the obligatory participation of adherent accessory cells, which are presumed to be macrophages.
Mice received sorbinil orally for one, two, or three days prior to sacrifice. The dosage was 11 mg/kg per day. Control mice received the buffer vehicle alone. Mice from these four groups were sacrificed and their spleens harvested. The spleens were teased into single-cell suspensions that were cultured with different concentrations of Con A for three or four days. One microcurie of tritiated thymidine was added to each culture 18 hours before the cultures were terminated. Incorporation of the tritiated thymidine into cellular DNA was measured by using a liquid scintillation counter. The results of this experiment are presented in FIGS. 20 and 21 and are summarized as follows: […]

[7] = system: Normal mouse thymocytes; assay: 3H-thymidine incorporation, PHA plus IL-1 stimulated thymocytes (Experiment 12); format: cell-based; conditions: concentrations as high as 10^-6 M/L; PHA in the presence of preformed IL-1
[8] = system: Human polymorphonuclear leukocytes (PMNs); assay: LTB4 release by polymorphonuclear leukocytes (Experiment 10); format: cell-based; conditions: normal human PMNs
From the text: Human polymorphonuclear leukocytes (PMNs) were used to study LTB4 release, which is known to be involved in inflammation.

[9] = system: DTH reaction in ears; assay: Histologic examination of DNFB-challenged ear tissue (Experiment 5); format: in vivo, mice
Procedure: FIG. 16 depicts the ear of a primed mouse which has not been challenged with DNFB. The epidermis 22 is devoid of mononuclear infiltrate 28, as is the dermal compartment 24. A layer of cartilage 26 is located in the center of the ear. FIG. 17 represents the ear of a buffer-treated primed mouse which had been challenged 24 hours previously with DNFB. Note the pronounced edema in the dermal compartment of the skin 24 as well as the extensive mononuclear cell infiltrate (indicated by arrows 28) in both the dermis and epidermis. […] There were also fewer mononuclear cells 28 in the epidermis 22 as well.

[10] = system: delayed type hypersensitivity (DTH) response to DNFB; assay: Delayed-type hypersensitivity (DTH) ear swelling, DNFB-primed mice (Experiments 2-3); format: in vivo, C57BL/6J mice
Procedure: Delayed type hypersensitivity, which involves the participation of T lymphocytes and macrophages, can be studied in vivo by exposing (or priming) a mammal to a novel antigen and then reexposing (or challenging) the primed animal to the same antigen four to seven days later. The classic DTH response includes symptoms of inflammatory response, induration and erythema, which peak at 24 to 48 hours after challenging and then decline slowly.
Eight-week old female C57BL/6J mice (Jackson Labs) were divided into primed and unprimed groups. The five mice in the primed group were primed to 2,4-dinitrofluorobenzene (DNFB; Sigma Chemical Co., Grade 1, approx. 98%, Lot 129C-0065, No. d-6879) by painting their shaved ventral skins with 0.1 ml of 0.5% DNFB in ethanol:acetone (3:1). The five mice in the unprimed group were shaved and topically painted on their ventral skins with the ethanol:acetone (3:1) vehicle alone. The mice in both groups were challenged with DNFB four days later. A suitable patch of skin, the ear, was chosen for challenging. One ear was designated for challenging and the other to serve as a control. The thickness of each ear across the pinna was measured using micrometer calipers. The first measurements were taken four days after priming and are plotted as day 0 in FIG. 13. Next, each mouse was subjected to the following challenge regimen: one ear was challenged with one drop of 0.35% DNFB in olive oil, and the other (unchallenged control) ear was exposed to olive oil alone. The ear thicknesses (ET) of the challenged ear and the unchallenged ear were measured daily, and the swelling responses are plotted in FIG. 13 as: [formula]
Three groups of eight-week old female C57BL/6J mice were primed to DNFB as previously described. […] Six hours later the first sets of ear measurements were taken, and one ear of each mouse was challenged.
The data in FIG. 15 is derived from three experiments using C57BL/6J mice. The measurements were taken at the time of maximal swelling, i.e., […] after challenge, and each point represents at least 9 mice.

[11] = system: Mouse peritoneal cells; assay: 3H-thymidine incorporation in peritoneal cells, with or without LPS (Experiment 15); format: cell-based; conditions: concentrations as high as 10^-6 M/L; control cells or cells stimulated using LPS
[12] = system: Human macrophages; assay: 3H-thymidine incorporation, LPS-stimulated macrophages (Experiment 17); format: cell-based; conditions: concentrations as high as 10^-5 M/L
Procedure: Human macrophages were stimulated using LPS in vitro, and ^3 H-thymidine incorporation was measured.

[13] = 11 mg/kg orally daily, four days after SRBC

SMILES: O=C1NC(=O)[C@@]2(CCOc3ccc(F)cc32)N1 [Sorbinil, 4(S)-2,3-dihydro-6-fluorospiro-(4H-1-benzopyran-4,4'-imidazolidine)-2',5'-dione]
- Swelling of popliteal lymph nodes [1]: no effect
- Swelling of mouse ears in response to PMA [2]: no effect
- Direct plaques [3, 13]: 372±62 plaques per 2×10^5 cells
- Increase in spleen cellularity compared to buffer-treated control group [3, 13]: 46%
- Increase in the number of direct plaques (IgM antibody secreting cells) compared to buffer control [3, 13]: 94%
- PFC on a per spleen basis [3, 13]: 393,000±12,617 PFC/spleen
- Spleen cellularity [3, 13]: 2.12±0.26×10^8 cells/spleen
- Qualitative appearance of plaques ([3]; spleen cells from sorbinil-treated mice vs buffer control): much smaller, more irregularly shaped, and less distinct
- Release of arachidonic acid metabolites [4]: no effect
- Production of superoxide [5]: no effect
- activation at 11 mg/kg/day ([6]; 72 h): 9%
- activation at 11 mg/kg/day ([6]; 96 h): 3 to 30%
- Reduction of proliferative response ([6]; cultures harvested day four, sorbinil three days prior to harvest): 25-58%
- Reduction of proliferative response ([6]; cultures harvested day four, sorbinil two days prior to sacrifice): 5 to 18%
- Reduction of proliferative response ([6]; cultures harvested day three, sorbinil one day prior to sacrifice, 1 μmg of Con A/ml): 25%
- Reduction of proliferative response ([6]; cultures harvested day three, sorbinil one day prior to sacrifice, Con A 2 μmg/ml): 18%
- Reduction of proliferative response ([6]; cultures harvested day three, sorbinil three days prior to sacrifice, Con A 2 μmg/ml): 30%
- Reduction of proliferative response ([6]; cultures harvested day three, sorbinil three days prior to sacrifice, Con A 5 μmg/ml): 27%
- Reduction of proliferative response ([6]; cultures harvested day three, sorbinil two days prior to sacrifice, 1 μmg of Con A/ml): 22%
- Reduction of proliferative response ([6]; cultures harvested day three, sorbinil two days prior to sacrifice, Con A 2 μmg/ml): 11%
- Proliferative response to the mitogen Con A (in words) ([6]; sorbinil 11 mg/kg per day orally prior to sacrifice): reduced proliferative response; also recorded: inhibits the proliferative response of T-cells
- Kinetics of the proliferative response of spleen cells to Con A ([6]; sorbinil one, two, or three days prior to spleen cell harvesting): not affected
- Dose response pattern to Con A ([6]; sorbinil-treated vs buffer-treated mice): similar
- Incorporation of 3H-thymidine [7]: no effect
- Production of LTB4 [8]: no effect
- Edema of dermal compartment ([9]; primed mouse challenged 24 hours previously with DNFB, vs buffer-treated): much less edematous
- Mononuclear cell infiltration in challenged ears ([9]; sorbinil-treated vs challenged control mice): infiltration was reduced
- ED100 ([10]; Mus musculus, extrapolation from least squares fit line, FIG. 15, three experiments, time of maximal swelling, i.e., 2 hours after challenge, read-out: Concentration at which maximum inhibition of DTH response (no swelling) would occur): 13.5 mg/kg
- Ear swelling (in words) ([10]; sorbinil 10 mg/kg orally): almost complete inhibition of ear swelling
- Ear swelling / DTH response (in words) ([10]; sorbinil orally 10, 1.0 or 0.1 mg/kg daily, DNFB-primed and challenged C57BL/6J mice): Swelling was inhibited; also recorded: dose dependent inhibition of ear swelling; also recorded: inhibits the inflammatory response; also recorded: dose dependent inhibition of the delayed-type hypersensitivity response
- 3H-thymidine incorporation [11]: no significant effect
- Incorporation of 3H-thymidine [12]: no effect
